Patent US20240254143A1, “OREXIN RECEPTOR AGONISTS AND USES THEREOF” (JAZZ PHARMACEUTICALS IRELAND LIMITED, priority 2021, published 2024)

Each compound was assayed against T1, human recombinant OX2 (hOX2) receptor (Homo sapiens, UniProt O43614) (assay: IP-1 accumulation assay (IP-One HTRF) in hOX2-CHO cells). Details: 60 min at 37° C., mean of at least two independent experiments, read-out: EC50_OX2R Category.
T1 construct: host or cells: CHO cells
T1 sequence (O43614 1-444): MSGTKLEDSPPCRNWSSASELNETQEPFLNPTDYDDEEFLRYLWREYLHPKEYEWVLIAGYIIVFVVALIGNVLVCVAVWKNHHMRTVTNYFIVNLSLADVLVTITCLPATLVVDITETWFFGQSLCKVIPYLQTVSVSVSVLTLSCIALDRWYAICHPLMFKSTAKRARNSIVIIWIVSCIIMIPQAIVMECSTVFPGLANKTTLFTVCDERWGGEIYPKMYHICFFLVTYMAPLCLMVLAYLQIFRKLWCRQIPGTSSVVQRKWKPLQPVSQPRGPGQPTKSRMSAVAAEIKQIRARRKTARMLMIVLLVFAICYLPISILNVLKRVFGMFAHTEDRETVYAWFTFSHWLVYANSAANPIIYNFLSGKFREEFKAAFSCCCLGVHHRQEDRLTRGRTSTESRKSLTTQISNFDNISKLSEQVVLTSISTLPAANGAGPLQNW
Format: cell-based
Description: Example 94: IP-1 Accumulation Assay
The accumulation of Inositol-1 Monophosphate (IP-1) was measured using IP-One HTRF® Terbium cryptate based assay (Cisbio) in human recombinant OX1 (hOX1) and at OX2 (hOX2) receptors expressed in CHO cells (DiscoverX) according to the manufacturer's instructions for cells tested in suspension.
hOX1-CHO and hOX2-CHO cells were seeded into white 384-well plates at a density of 20,000 cells/well in Hank's Balanced Salt Solution (HBSS) containing 20 mM HEPES pH 7.4, 50 mM, LiCl and 0.1% and Bovine Serum Albumin (BSA).
Compounds of the present disclosure were tested in a 11 points concentration response curve (CRC) serially diluted in neat DMSO at 200 fold concentrations and added by Echo acoustic liquid handling (Labcyte) to the cells (0.5% DMSO final in the assay). After 60 min of incubation at 37° C. detection reagents, IP1-d2 tracer and anti-IP1-cryptate were diluted in lysis buffer according to the manufacturer's descriptions and added to the cells.
Following 60 mi incubation at room temperature, time-resolved fluorescence (HTRF) was measured at 615 nm and 665 nm by Envision Multilabel reader (Perkin Elmer) and the HTRF ratio (A665/A615×10^4) was calculated.
The IP-1 accumulation response was expressed as percentage of the maximal OX-A response.
Curve fitting and EC50 estimations were carried out using a four-parameter logistic model using XLfit Software. Mean data of EC50 are calculated from at least two independent experiments performed in duplicates.

First: CCNC(=O)N1[C@H](C)C[C@@]2(COCC(=O)N2)[C@@H]1CO[C@H]1CC[C@@H](c2ccccc2)CC1 [Example 47, (1R,3R,5S)-N-ethyl-3-methyl-7-oxo-1-({[(CIS)-4-phenylcyclohexyl]oxy}methyl)-9-oxa-2,6-diazaspiro[4.5] decane-2-carboxamide]
Second: CCNC(=O)N1[C@H](C)C[C@]2(COCC(=O)N2)[C@H]1CO[C@H]1CC[C@@H](c2ccccc2)CC1 [Example 48, (1S,3R,5R)-N-ethyl-3-methyl-7-oxo-1-({[(CIS)-4-phenylcyclohexyl]oxy}methyl)-9-oxa-2,6-diazaspiro[4.5] decane-2-carboxamide]
The EC50 of the first is lower: less than 100 nM for the first, greater than 10000 nM for the second.

First: C[C@@H]1C[C@@]2(COCC(=O)N2)[C@H](CO[C@H]2CC[C@@H](c3ccccc3)CC2)N1C(=O)C(C)(C)O [Example 49, (1R,3R,5S)-2-(2-hydroxy-2-methylpropanoyl)-3-methyl-1-({[(CIS)-4-phenylcyclohexyl]oxy}methyl)-9-oxa-2,6-diazaspiro[4.5]decan-7-one]
Second: C[C@@H]1C[C@@]2(COCC(=O)N2)[C@H](CO[C@H]2CC[C@@H](c3ccccc3)CC2)N1C(=O)C1CCC1 [Example 58, (1R,3R,5S)-2-cyclobutanecarbonyl-3-methyl-1-({[(CIS)-4-phenylcyclohexyl]oxy}methyl)-9-oxa-2,6-diazaspiro [4.5]decan-7-one]
The EC50 of the first is higher: 1000 to 10000 nM for the first, less than 100 nM for the second. The second is the more potent here.

`C[C@@H]1C[C@@]2(COCC(=O)N2)[C@H](CO[C@H]2CC[C@@H](c3ccccc3)CC2)N1C(=O)NCC(F)F` [Example 50, (1R,3R,5S)-N-(2,2-difluoroethyl)-3-methyl-7-oxo-1-({[(CIS)-4-phenylcyclohexyl]oxy}methyl)-9-oxa-2,6-diazaspiro[4.5]decane-2-carboxamide] and `C[C@@H]1C[C@@]2(COCC(=O)N2)[C@H](CO[C@H]2CC[C@@H](c3ccccc3)CC2)N1C(=O)NCC(F)(F)F` [Example 62, (1R,3R,5S)-3-methyl-7-oxo-1-({[(CIS)-4-phenylcyclohexyl]oxy}methyl)-N-(2,2,2-trifluoroethyl)-9-oxa-2,6-diazaspiro[4.5]decane-2-carboxamide] cannot be ordered by EC50: less than 100 nM for the first, less than 100 nM for the second.

`COCCNC(=O)N1[C@H](C)C[C@@]2(COCC(=O)N2)[C@@H]1CO[C@H]1CC[C@@H](c2ccccc2)CC1` [Example 51, (1R,3R,5S)-N-(2-methoxyethyl)-3-methyl-7-oxo-1-({[(CIS)-4-phenylcyclohexyl]oxy}methyl)-9-oxa-2,6-diazaspiro[4.5]decane-2-carboxamide] and `C[C@@H]1C[C@@]2(COCC(=O)N2)[C@H](CO[C@H]2CC[C@@H](c3ccccc3)CC2)N1C(=O)OCC(F)F` [Example 61, 2,2-difluoroethyl (1R,3R,5S)-3-methyl-7-oxo-1-({[(CIS)-4-phenylcyclohexyl]oxy}methyl)-9-oxa-2,6-diazaspiro [4.5]decane-2-carboxylate] cannot be ordered by EC50: less than 100 nM for the first, less than 100 nM for the second.

First: C[C@@H]1C[C@@]2(COCC(=O)N2)[C@H](CO[C@H]2CC[C@@H](c3ccccc3)CC2)N1C(=O)N1CC(F)(F)C1 [Example 52, (1R,3R,5S)-2-(3,3-difluoroazetidine-1-carbonyl)-3-methyl-1-({[(CIS)-4-phenylcyclohexyl]oxy}methyl)-9-oxa-2,6-diazaspiro[4.5]decan-7-one]
Second: C[C@@H]1C[C@@]2(COCC(=O)N2)[C@H](CO[C@H]2CC[C@@H](c3ccccc3)CC2)N1C(=O)[C@H]1C[C@@H](F)C1 [Example 59, (1R,3R,5S)-3-methyl-2-[(1s,3s)-3-fluorocyclobutanecarbonyl]-1-({[(CIS)-4-phenylcyclohexyl]oxy}methyl)-9-oxa-2,6-diazaspiro[4.5]decan-7-one]
The EC50 of the first is higher: 1000 to 10000 nM for the first, less than 100 nM for the second.

Compared with `CCNC(=O)N1[C@H](C)C[C@@]2(COCC(=O)N2)[C@@H]1Cc1cccc(-c2cc(F)cc(F)c2)c1F` [Example 53, (1S,3R,5S)-N-ethyl-3-methyl-7-oxo-1-({2,3′,5′-trifluoro-[1,1′-biphenyl]-3-yl}methyl)-9-oxa-2,6-diazaspiro[4.5]decane-2-carboxamide], `COC(=O)N1[C@H](C)C[C@@]2(COCC(=O)N2)[C@@H]1Cc1cccc(-c2cc(F)cc(F)c2)c1F` [Example 85, Methyl (1S,3R,5S)-3-methyl-7-oxo-1-({2,3′,5′-trifluoro-[1,1′-biphenyl]-3-yl}methyl)-9-oxa-2,6-diazaspiro[4.5]decane-2-carboxylate] is higher in EC50: less than 100 nM for the first, greater than 10000 nM for the second. The first is the more potent here.

`C[C@@H]1C[C@@]2(COCC(=O)N2)[C@H](Cc2cccc(-c3cc(F)cc(F)c3)c2F)N1C(=O)C(C)(C)O` [Example 54, (1S,3R,5S)-2-(2-hydroxy-2-methylpropanoyl)-3-methyl-1-({2,3′,5′-trifluoro-[1,1′-biphenyl]-3-yl}methyl)-9-oxa-2,6-diazaspiro[4.5]decan-7-one] and `CCN(C)C(=O)N1[C@H](C)C[C@@]2(COCC(=O)N2)[C@@H]1Cc1cccc(-c2cc(F)cc(F)c2)c1F` [Example 87, (1S,3R,5S)-N-ethyl-N,3-dimethyl-7-oxo-1-({2,3′,5′-trifluoro-[1,1′-biphenyl]-3-yl}methyl)-9-oxa-2,6-diazaspiro[4.5]decane-2-carboxamide] fall in the same range of EC50: 100 to 1000 nM for the first, 100 to 1000 nM for the second.

First: C[C@@H]1C[C@@]2(COCC(=O)N2)[C@H](CO[C@H]2CC[C@@H](c3ccccc3)CC2)N1C(=O)C12CC(C1)C2 [Example 60, (1R,3R,5S)-2-{bicyclo[1.1.1]pentane-1-carbonyl}-3-methyl-1-({[(CIS)-4-phenylcyclohexyl]oxy}methyl)-9-oxa-2,6-diazaspiro[4.5]decan-7-one]
Second: C[C@@H]1C[C@@]2(COCC(=O)N2)[C@H](CO[C@H]2CC[C@@H](c3ccccc3)CC2)N1c1nnnn1C [Example 64, (1R,3R,5S)-3-methyl-2-(1-methyl-1H-1,2,3,4-tetrazol-5-yl)-1-({[(CIS)-4-phenylcyclohexyl]oxy}methyl)-9-oxa-2,6-diazaspiro[4.5]decan-7-one]
The EC50 of the first is higher: 1000 to 10000 nM for the first, less than 100 nM for the second.

First: COc1cccnc1N1[C@H](C)C[C@@]2(COCC(=O)N2)[C@@H]1CO[C@H]1CC[C@@H](c2ccccc2)CC1 [Example 63, (1R,3R,5S)-2-(3-methoxypyridin-2-yl)-3-methyl-1-({[(CIS)-4-phenylcyclohexyl]oxy}methyl)-9-oxa-2,6-diazaspiro[4.5]decan-7-one]
Second: C[C@@H]1C[C@@]2(COCC(=O)N2)[C@H](Cc2cccc(-c3cc(F)cc(F)c3)c2F)N1C(=O)C1CCC1 [Example 81, (1S,3R,5S)-2-cyclobutanecarbonyl-3-methyl-1-({2,3′,5′-trifluoro-[1,1′-biphenyl]-3-yl}methyl)-9-oxa-2,6-diazaspiro[4.5]decan-7-one]
The EC50 of the first is higher: 100 to 1000 nM for the first, less than 100 nM for the second. The second is the more potent here.

Compared with `O=C1COC[C@@]2(C[C@@H](C(F)F)N(C(=O)[C@H]3C[C@@H](F)C3)[C@H]2Cc2cccc(-c3cc(F)cc(F)c3)c2F)N1` [Example 80, (1S,3S,5S)-3-(difluoromethyl)-2-[(1s,3s)-3-fluorocyclobutanecarbonyl]-1-({2,3′,5′-trifluoro-[1,1′-biphenyl]-3-yl}methyl)-9-oxa-2,6-diazaspiro[4.5]decan-7-one], `C[C@@H]1C[C@@]2(COCC(=O)N2)[C@H](Cc2cccc(-c3cc(F)cc(F)c3)c2F)N1C(=O)[C@H]1C[C@@H](F)C1` [Example 82, (1S,3R,5S)-3-methyl-2-[(1s,3s)-3-fluorocyclobutanecarbonyl]-1-({2,3′,5′-trifluoro-[1,1′-biphenyl]-3-yl}methyl)-9-oxa-2,6-diazaspiro[4.5]decan-7-one] is lower in EC50: 100 to 1000 nM for the first, less than 100 nM for the second.

`C[C@@H]1C[C@@]2(COCC(=O)N2)[C@H](Cc2cccc(-c3cc(F)cc(F)c3)c2F)N1C(=O)OCC(F)F` [Example 83, 2,2-difluoroethyl (1S,3R,5S)-3-methyl-7-oxo-1-({2,3′,5′-trifluoro-[1,1′-biphenyl]-3-yl}methyl)-9-oxa-2,6-diazaspiro[4.5]decane-2-carboxylate] and `C[C@@H]1C[C@@]2(COCC(=O)N2)[C@H](Cc2cccc(-c3cc(F)cc(F)c3)c2F)N1C(=O)CC(F)(F)F` [Example 84, (1S,3R,5S)-3-methyl-1-({2,3′,5′-trifluoro-[1,1′-biphenyl]-3-yl}methyl)-2-(3,3,3-trifluoropropanoyl)-9-oxa-2,6-diazaspiro[4.5]decan-7-one] fall in the same range of EC50: 100 to 1000 nM for the first, 100 to 1000 nM for the second.

With `C[C@@H]1C[C@@]2(COCC(=O)N2)[C@H](Cc2cccc(-c3cc(F)cc(F)c3)c2F)N1C(=O)C1CC(F)(F)C1` [Example 86, (1S,3R,5S)-2-(3,3-difluorocyclobutanecarbonyl)-3-methyl-1-({2,3′,5′-trifluoro-[1,1′-biphenyl]-3-yl}methyl)-9-oxa-2,6-diazaspiro[4.5]decan-7-one] the EC50 was 100 to 1000 nM.
